According to patent US5556856A, “Phthalazinone derivatives that modulate multi-drug resistance” (Asta Medica Aktiengesellschaft, priority 1992, dated 1996):
Like-named read-outs stand apart in the source and are kept apart here.

What was measured:
[1] = system: inflammation pain; experiment: Randall-Selitto inflammation pain test (IRS); type: in vivo; settings: rat; for Analgesic effect in test model IRS: 10 mg/kg p.o.; for ED50: po, read-out: Analgesic effect in test model IRS, ED50
Description: (§1) The peripheral analgesic effect was shown in the model of the Writhing Test (IWRAC) and in the model of the Randall-Selitto inflammation pain test (IRS).
^b IRS = RandallSelitto inflammation pain test. Data in % refer to a
dose or 10 mg/kg p.o. (rat). The ED50 values are given in mg/kg.

[2] = system: acetic acid induced writhing; experiment: Acetic acid induced Writhing Test (IWRAC); type: in vivo; settings: mouse; for Analgesic effect in test model IWRAC: 6 mg/kg p.o.; for ED50: po, read-out: Analgesic effect in test model IWRAC, ED50
Description: as §1
^a IWRAC = Acetic acid induced Writhing Test. Data in % refer to a
dose of 6 mg/kg p.o. (mouse). The ED50 values are given in mg/kg.

[3] = system: left atrial myocardium; experiment: Antiarrhythmic properties in rabbit cardiac preparations, left atrial myocardium; settings: Oryctolagus cuniculus, 1 h, 60 minutes; for activation at 10 µM: left atrial myocardium; for inhibition at 10 µM: left auricle, read-out: Contractility, change in percentage from control
Description: (§2) The antiarrhythmic effect was tested by the following experimental procedure:
(§3) Twenty young rabbits of mixed breed and either sex, weighing 1475±75 g (mean±S.E.), were used. The animals were sacrificed by a blow on the head, their heart was isolated and the left atrium, a strip of the anterior free wall of the right ventricle, as well as one of the papillary muscles of the right ventricle were dissected and pinned to the bottom (`non-toxic` rubber) of a thermostated organic bath, containing modified Locke's solution. The composition of the solution was the following: Na^+ 140; K^+ 5.63; Ca^2+ 2.17; glucose 11, HCO3 25; CL 125; total 309 mmol/l, pH 7.4. Continuous stirring and oxygenation of the solution were maintained by the bubbling of a mixture of 95% O2 and 5% CO2. The temperature of the organ bath was kept at 32° C. The isolated left atrium, papillary muscle and the strip prepared from the anterior free wall of the right ventricle were electrically paced by rectangular electric impulses of 1 msec duration, twice-threshold intensity and a 100 per min frequency. During the experiments the following electro-physiological parameters were determined: electrical threshold, effective refractory period and conduction time. The effective refractory period (i.e. the least interval between two successive electro-mechanical responses) was measured by applying a threefold-threshold test stimulus (1 msec, square waves) delivered from a DISA Multistim at various times following the pacing impulse. Conduction time was measured on an oscilloscope (Tektronis 2230) as a distance (i.e. time) between the artifact of the pacing stimulus and the appearance of the subsequent surface potential recorded via bipolar platinum electrodes. The auxotonically measured contractility (maximum contractile force) was also followed (papillary muscle, left atrium).
(§4) After a 60 min equilibrium in the control solution, the preparations were exposed to 10 μM of the test substance for a period of 60 min. Except for the effect on the effective refractory periods (determined at the 30th and 60th min only) all the other parameters were measured in every 15th min, i.e. four times in the presence of a given concentration of the compound examined.
(§5) The values given in the Tables and Figures are means ±S.E. The effect of compounds on the various parameters was estimated statistically by the t-test (Student-Welch); P values<0.05 were regarded as significant.
(§6) Antiarrhythmic properties in rabbit cardiac
(§7) incubation time with drugs 60 minutes
(§8) change in percentage from control

[4] = system: right ventricular papillary muscle; experiment: Antiarrhythmic properties in rabbit cardiac preparations, right ventricular papillary muscle; settings: Oryctolagus cuniculus, 1 h, 60 minutes; for inhibition at 10 µM: papillary muscle, read-out: Contractility, change in percentage from control; for activation at 10 µM: right ventricular papillary muscle
Description: as §2, §3, §4, §5, §6, §7, §8

[5] = system: right anteior papillary muscle; experiment: Antiarrhythmic properties in rabbit cardiac preparations, right anterior papillary muscle (conduction time); settings: Oryctolagus cuniculus, 1 h, 60 minutes, read-out: Conduction time, change in percentage from control
Description: as §2
as §3, with “The isolated left atrium, papillary muscle and the strip prepared from the anterior free wall of the right ventricle were electrically paced by rectangular electric impulses of 1 msec duration, twice-threshold intensity and a 100 per min frequency.” left out
as §4, with “examined. […]” for “examined.”

[6] = system: right anterior free wall; experiment: Antiarrhythmic properties in rabbit cardiac preparations, right anterior free wall; settings: Oryctolagus cuniculus, 1 h, 60 minutes, read-out: Electrical threshold, change in percentage from control
Description: as §2
as §3, with “The isolated left atrium, papillary muscle and the strip prepared from the anterior free wall of the right ventricle were electrically paced by rectangular electric impulses of 1 msec duration, twice-threshold intensity and a 100 per min frequency.” left out
as §4, with “examined. […]” for “examined.”

[7] = read-out: Conduction time, change in percentage from control
[8] = read-out: Effective refractory period, change in percentage from control
[9] = read-out: Electrical threshold, change in percentage from control

For `O=c1c2ccccc2c(Cc2ccc(Cl)cc2)nn1C1CCCN(CCc2ccccc2)CC1` (centres unmarked), the “Analgesic effect in test model IRS” value [1] was 77% and the “Analgesic effect in test model IWRAC” value [2] was 91%.

With `O=c1c2ccccc2c(Cc2ccc(F)cc2)nn1C1CCCN(Cc2ccccc2)CC1` (centres unmarked) the “Analgesic effect in test model IRS” value [1] was 53% and the “Analgesic effect in test model IWRAC” value [2] was 75%.

In the case of `O=c1c2ccccc2c(Cc2ccc(F)cc2)nn1C1CCCN(CCc2ccccc2)CC1` (centres unmarked), the “Analgesic effect in test model IRS” value [1] is reported as 54% and the ED50 [2] is reported as 2.7 mg/kg.

`O=c1c2ccccc2c(Cc2ccc(F)cc2)nn1C1CCN(CCCc2ccccc2)CC1` was tested, and the “Analgesic effect in test model IRS” value [1] was 67% and the “Analgesic effect in test model IWRAC” value [2] was 77%.

In the case of `O=c1c2ccccc2c(Cc2ccc(F)cc2)nn1C1CCN(CCCc2ccc(F)cc2)CC1`, the “Analgesic effect in test model IRS” value [1] is reported as 52% and the “Analgesic effect in test model IWRAC” value [2] is reported as 67%.

In the case of `CCOC(=O)CCN1CCC(n2nc(Cc3ccc(Cl)cc3)c3ccccc3c2=O)CC1`, the “Analgesic effect in test model IRS” value [1] is reported as 50% and the “Analgesic effect in test model IWRAC” value [2] is reported as 67%.

In the case of `O=c1c2ccccc2c(Cc2ccccc2Cl)nn1C1CCCN(CCc2ccccc2)CC1` (centres unmarked), the ED50 [1] is reported as 4.7 mg/kg and the ED50 [2] is reported as 4.1 mg/kg.

With `O=c1c2ccccc2c(Cc2ccco2)nn1C1CCCN(CCc2ccccc2)CC1` (centres unmarked) the “Analgesic effect in test model IRS” value [1] was 40%.

Compound `O=c1c2ccccc2c(Cc2ccc(F)cc2)nn1C1CCCN(CCc2ccccc2)CC1` (racemic) [D-18024] has an activation at 10 µM [3, 7] of 91%, an activation at 10 µM [3, 8] of 66% and an activation at 10 µM [3, 9] of 12%. For the same compound, the inhibition at 10 µM [3] was 39%, the inhibition at 10 µM [4] was 48% and the activation at 10 µM [4, 8] was 7%. The activation at 10 µM [4, 9] was 29%, the activation at 10 µM [5] was 103% and the activation at 10 µM [6] was -1%.

For `O=c1c2ccccc2c(Cc2ccc(F)cc2)nn1C1CN2CCC1CC2` (centres unmarked) [4-F-Phenyl 3-Chinuclidyl], the ED50 [1] was 1.5 mg/kg and the ED50 [2] was 4.6 mg/kg.

In the case of `CN1CCCC(n2nc(Cc3ccc(Cl)cc3)c3ccccc3c2=O)CC1` (centres unmarked) [Azelastine], the activation at 10 µM [3, 7] is reported as 40%, the activation at 10 µM [3, 8] is reported as 12% and the activation at 10 µM [3, 9] is reported as 25%. For the same compound, the activation at 10 µM [4, 8] was 9%, the activation at 10 µM [4, 9] was 22% and the activation at 10 µM [5] was 50%. The activation at 10 µM [6] was 29%.

For `CN1[C@@H]2CC[C@H]1C[C@@H](OC(=O)c1c[nH]c3ccccc13)C2` [ICS-205930], the activation at 10 µM [3, 7] was 57%, the activation at 10 µM [3, 8] was 26% and the activation at 10 µM [3, 9] was 51%. The inhibition at 10 µM [3] was 33%, the inhibition at 10 µM [4] was 29% and the activation at 10 µM [4, 8] was 21%. The activation at 10 µM [4, 9] was 34%, the activation at 10 µM [5] was 111% and the activation at 10 µM [6] was 51%.

`O=c1c2ccccc2c(Cc2ccccc2)nn1C1CN2CCC1CC2` (centres unmarked) [Phenyl 3-Chinuclidyl] gave an ED50 [1] of 1.5 mg/kg and an ED50 [2] of 3 mg/kg.
